We go through 24 compounds from PubChem BioAssay (NCI).

Common to all, as to test: growth of human tumour cells (NCI), 48 h
The test system of assay [1] is EKVX NSCLC.
Assay [2] has as its system HCT-15 colon.
Assay [3] deals with HOP-62 NSCLC.
Assay [4] concerns K-562 leukemia.
Assay [5] concerns OVCAR-5 ovarian.
The subject of assay [6] is RXF 393 renal.
In assay [7] the test system is SK-MEL-28 melanoma.
The test system of assay [8] is SK-OV-3 ovarian.

“And” between values parts separate entries of the source, which are not always exact repeats. Equal values may be shown once.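 Briefly, cells in 96-well plates were exposed to five compound concentrations for 48 h, and endpoints were estimated by linear interpolation. GI50 marks 50% less growth. TGI: concentration producing complete growth inhibition.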

In the case of `Cc1cc(N(CCC#N)CCC#N)ccc1N=Nc1ccccc1[N+](=O)[O-]`, the TGI in assay [1], in assay [2], in assay [3], in assay [4], in assay [5] and in assay [6] was over 100 µM throughout. The TGI in assay [7] and in assay [8] was over 100 µM each time.

Regarding `CC1=CCP(C(F)(F)F)P(C(F)(F)F)C1` (configuration not stated), the TGI in assay [1] was over 100 µM; in assay [2] it was over 100 µM; in assay [3], over 100 µM; in assay [4], over 100 µM; in assay [5] it was over 100 µM; in assay [6] it was 58.3 µM. Further, the TGI in assay [7] and in assay [8] was over 100 µM each time.

Take `C=CC[P@@]1(=O)O[C@H](c2ccccc2)C(C)N1C(C)C` (some centres not stated): the TGI in assay [1], in assay [2], in assay [4], in assay [5], in assay [6] and in assay [7] was over 100 µM throughout. In assay [8], the TGI was over 100 µM.

On to `COC(=O)C1Cc2c(n(C)c3ccccc23)C(c2ccccc2)N1` (configuration not stated), for which the TGI in assay [1], in assay [2], in assay [4], in assay [5], in assay [7] and in assay [8] was over 100 µM each time.

In the case of `CC(C)(C)c1ccc(Oc2ccc(C#N)c(C#N)c2)c(C(C)(C)C)c1`, the TGI in assay [1] is over 100 µM; in assay [2], 31.3 µM; in assay [3] it was over 100 µM; in assay [4], over 64.9 µM; in assay [5], over 100 µM; in assay [6] it was over 95.7 µM. For the same compound, the TGI in assay [7] and in assay [8] was over 100 µM throughout.

On to `O=C(c1ccccc1)c1ccc2cccc(O)c2n1`, for which the TGI is 69 µM in assay [1]; over 100 µM in assay [2]; over 100 µM in assay [3]; over 100 µM in assay [4]; over 100 µM in assay [5]; 69 µM in assay [6]. The compound also gave a TGI in assay [7] of over 100 µM.

Take `COc1c2c(c(OC)c3c(=O)cc(C/C(=N/NC(=O)C[n+]4ccccc4)C(=O)Nc4cc(C)ccc4C)oc13)OCO2`: the TGI in assay [1], in assay [2], in assay [3], in assay [4], in assay [5] and in assay [6] was over 100 µM in each case. Moreover, the TGI in assay [7] and in assay [8] was over 100 µM each time.

Take `O=C1C2c3[nH]c4ccccc4c3C3CCSCC3C2C(=O)N1c1ccccc1` (configuration not stated): the TGI in assay [1], in assay [2], in assay [3], in assay [4], in assay [5] and in assay [6] was over 100 µM throughout. Also, the TGI in assay [7] and in assay [8] was over 100 µM throughout.

Turning to `Cc1ccc(C)c(NC(=O)CC2C(=O)Nc3ccccc3S2(=O)=O)c1` (configuration not stated), the TGI is over 100 µM in assay [1]; over 100 µM in assay [2]; over 100 µM in assay [4]; over 100 µM in assay [5]; 49.6 µM in assay [6]; over 100 µM in assay [7].

With `COCC1N=C(c2ccc(OC)c(OCc3ccccc3)c2OC)O[C@H]1c1ccccc1` (some centres not stated), the TGI in assay [1] is over 100 µM; in assay [2], 94.5 µM; in assay [3], over 100 µM; in assay [4], over 100 µM; in assay [5] it was 71.2 µM; in assay [6] it was 97.3 µM. Also, the TGI in assay [7] worked out at 69.8 µM; in assay [8], 96.1 µM.

`N.N.NCCCCN.O=C([O-])CC(=O)[O-].O=C([O-])CC(=O)[O-].[Pt+4].[Pt+4]`: the GI50 in assay [1], in assay [2], in assay [3], in assay [4], in assay [5] and in assay [6] was over 100 µM throughout. Further, the GI50 in assay [7] and in assay [8] was over 100 µM in each case. The TGI in assay [1], in assay [2], in assay [3], in assay [4], in assay [5] and in assay [6] was over 100 µM in each case. Also, the TGI in assay [7] and in assay [8] was over 100 µM in each case.

Take `N#C[C@]12CC3(CC[C@H]1CC1(C2)OCCO1)OCCO3`: the TGI in assay [2], in assay [3], in assay [4], in assay [6], in assay [7] and in assay [8] was over 100 µM in each case.

As for `Brc1nc2c3ccccc3ncn2c1Br`, the TGI in assay [1] was 95.9 µM; in assay [2], over 100 µM; in assay [3], over 100 µM; in assay [4] it was over 100 µM; in assay [5], over 100 µM; in assay [6], 86.1 µM. Further, the TGI in assay [7] and in assay [8] was over 100 µM throughout.

Regarding `Cc1c2cc[n+](C)cc2c(C)c2c1[nH]c1ccc(OC(C)C)cc12`, the TGI in assay [1] was over 100 µM; in assay [2], over 100 µM; in assay [3], 19.9 µM and 27.3 µM; in assay [4], over 46.4 µM; in assay [5], > 100 µM and 67.3 µM; in assay [6], over 100 µM. Moreover, the TGI is 12.4 µM and 17.3 µM in assay [7]; over 85.5 µM in assay [8]. In addition, the GI50 in assay [3] was 1.23 µM and 3.13 µM; in assay [4] it was 1.02 µM and 2.55 µM; in assay [6] it was 7.26 µM and 20.4 µM; in assay [8] it was 1.98 µM and 4.47 µM.

`CCCCCCC(O)C/C=C/CCCCCC/C(C(=O)OC)=C(/O)C(=O)OCC` (configuration not stated): the TGI in assay [1], in assay [2], in assay [3], in assay [4], in assay [5] and in assay [7] was over 100 µM each time. The TGI in assay [8] was over 100 µM.

As for `O=C(Nc1ccccc1)O/N=C1/CCCC/C1=C\c1ccccc1`, the TGI in assay [2] stood at 23.4 µM; in assay [3], 40.4 µM; in assay [4], 29.1 µM; in assay [5] it was 63.9 µM; in assay [6], 32 µM; in assay [7] it was 31.8 µM. The same compound gave a TGI in assay [8] of 35.6 µM.

With `CC(=O)CC(=O)CCCC(=O)Nc1ccc(Cl)cc1Cl`, the TGI in assay [2], in assay [3], in assay [4], in assay [5], in assay [7] and in assay [8] was over 100 µM in each case.

With `O=[N+]([O-])c1ccc(OCCNc2cccc3ccccc23)cc1`, the TGI in assay [1], in assay [2], in assay [3], in assay [4], in assay [5] and in assay [7] was over 100 µM in each case. For the same compound, the TGI in assay [8] is over 100 µM.

With `CC1(c2ccccc2)CC12C(=O)NC(=O)NC2=O` (configuration not stated), the TGI in assay [1], in assay [2], in assay [3], in assay [4], in assay [5] and in assay [7] was over 100 µM throughout. The same compound displayed a TGI in assay [8] of over 100 µM.

As for `CC1=C2C(=CC(C)(CO)C2O)C(=O)C(C)(O)C12CC2` (configuration not stated), the TGI stood at 0.0335 µM in assay [1]; 0.0462 µM in assay [2]; 0.0147 µM in assay [3]; 0.105 µM in assay [4]; 0.0258 µM in assay [5]; 0.00569 µM in assay [6]. In addition, the TGI amounted to 0.0138 µM in assay [7] and 0.0424 µM in assay [8].

As to `NC(=O)c1csc(C2O[C@@H](COP(=O)(O)OP(=O)(O)OC[C@H]3OC(n4cnc5c(N)ncnc54)[C@H](O)[C@@H]3O)[C@H](O)[C@@H]2O)n1` (some centres not stated), the TGI in assay [1], in assay [2], in assay [3], in assay [4], in assay [5] and in assay [7] was over 100 µM in each case. In assay [8], this compound gave a TGI of over 100 µM.

For `CC(C)(C)C(=O)Nc1ccccc1Br`, the TGI in assay [1], in assay [2], in assay [3], in assay [4], in assay [5] and in assay [6] was over 100 µM each time. Also, the TGI in assay [7] and in assay [8] was over 100 µM in each case.

In the case of `COC(=O)C(=O)C(C(=O)C(=O)Nc1ccc([N+](=O)[O-])cc1[N+](=O)[O-])c1nc2ccc([N+](=O)[O-])cc2[nH]c1=O` (configuration not stated), the TGI in assay [1], in assay [2], in assay [3], in assay [4], in assay [5] and in assay [6] was over 100 µM throughout. The TGI in assay [8] was over 100 µM.

For the compound `COC(=O)[C@H](C)[C@H]1CC[C@@](C)([C@H]2CC3C(C)(C)[C@H]4CCC(C)=C[C@H]4C[C@@]3(C)O2)OO1` (some centres not stated), the TGI in assay [1] was determined as 27.6 µM; in assay [2] it was 24.2 µM; in assay [3], 37.1 µM; in assay [4], 24.2 µM; in assay [5] it was 26.2 µM; in assay [7], 31 µM. In assay [8], this compound displayed a TGI of 56.6 µM.
